# Where a name gives a salt, the structure may show the parent alone.
# Species on record: Rattus norvegicus
# Test: Open TG-GATES - Regimen: Single
# Type: toxicity, organism-based, Sprague-Dawley
# Parameters: regimen Single, gender Male, age 6 weeks
# Conditions: in vivo, ip, 0 mg/kg, route intraperitoneal injection, dose level Control; for APTT / Bas / Eos / Fbg / Hb / Ht / Lym / MCH / MCHC / MCV / Mono / Neu / PT / Plat / RBC / Ret / WBC: tissue Blood; for KIDNEY_L / KIDNEY_R / KIDNEY_TOTAL: tissue Kidney; for LIVER: tissue Liver; for A/G / ALP / ALT / AST / BUN / CRE / Ca / Cl / DBIL / GLC / IP / K / LDH / Na / PL / RALB / TBIL / TC / TG / TP / gamma-GTP: tissue Plasma
compound,measurement,setting,value
CCOC(=O)/C=C\C(=O)OCC [DIETHYL MALEATE],TERMINAL_BW,3 h,198.9 g
same,APTT,3 h,16.4 s
same,Bas,3 h,0%
same,Eos,3 h,0.6%
same,Fbg,3 h,209.8 mg/dL
same,Hb,3 h,13 g/dL
same,Ht,3 h,39.1%
same,Lym,3 h,69.8%
same,MCH,3 h,21.2 pg
same,MCHC,3 h,33.4%
same,MCV,3 h,63.6 fL
same,Mono,3 h,7%
same,Neu,3 h,22.8%
same,PT,3 h,12.3 s
same,Plat,3 h,114.7 x10_4/uL
same,RBC,3 h,615.6 x10_4/ul
same,Ret,3 h,10.1%
same,WBC,3 h,113.4 x10_2/uL
same,KIDNEY_L,3 h,0.9 g
same,KIDNEY_R,3 h,0.9 g
same,KIDNEY_TOTAL,3 h,1.8 g
same,LIVER,3 h,9.2 g
same,A/G,3 h,2
same,ALP,3 h,732.6 IU/L
same,ALT,3 h,39.8 IU/L
same,AST,3 h,78.2 IU/L
same,BUN,3 h,14.6 mg/dL
same,CRE,3 h,0.5 mg/dL
same,Ca,3 h,11.2 mg/dL
same,Cl,3 h,106 meq/L
same,DBIL,3 h,0.028 mg/dL
same,GLC,3 h,187 mg/dL
same,IP,3 h,10.1 mg/dL
same,K,3 h,5.2 meq/L
same,LDH,3 h,80.6 IU/L
same,Na,3 h,140.4 meq/L
same,PL,3 h,137.4 mg/dL
same,RALB,3 h,3.6 g/dL
same,TBIL,3 h,0.3 mg/dL
same,TC,3 h,79.6 mg/dL
same,TG,3 h,38 mg/dL
same,TP,3 h,5.4 g/dL
same,gamma-GTP,3 h,1 IU/L
same,TERMINAL_BW,6 h,197.4 g
same,APTT,6 h,16.4 s
same,Bas,6 h,0%
same,Eos,6 h,1%
same,Fbg,6 h,219.8 mg/dL
same,Hb,6 h,13.4 g/dL
same,Ht,6 h,40.3%
same,Lym,6 h,67%
same,MCH,6 h,21.6 pg
same,MCHC,6 h,33.3%
same,MCV,6 h,64.8 fL
same,Mono,6 h,7.4%
same,Neu,6 h,24.6%
same,PT,6 h,12 s
same,Plat,6 h,118.6 x10_4/uL
same,RBC,6 h,621.6 x10_4/ul
same,Ret,6 h,8.9%
same,WBC,6 h,102 x10_2/uL
same,KIDNEY_L,6 h,0.8 g
same,KIDNEY_R,6 h,0.9 g
same,KIDNEY_TOTAL,6 h,1.7 g
same,LIVER,6 h,8.3 g
same,A/G,6 h,1.8
same,ALP,6 h,838.6 IU/L
same,ALT,6 h,35.2 IU/L
same,AST,6 h,67 IU/L
same,BUN,6 h,14 mg/dL
same,CRE,6 h,0.4 mg/dL
same,Ca,6 h,10.6 mg/dL
same,Cl,6 h,106.6 meq/L
same,DBIL,6 h,0.018 mg/dL
same,GLC,6 h,191 mg/dL
same,IP,6 h,10.4 mg/dL
same,K,6 h,5.2 meq/L
same,LDH,6 h,70.4 IU/L
same,Na,6 h,139.8 meq/L
same,PL,6 h,142.6 mg/dL
same,RALB,6 h,3.4 g/dL
same,TBIL,6 h,0.4 mg/dL
same,TC,6 h,84.2 mg/dL
same,TG,6 h,51.2 mg/dL
same,TP,6 h,5.3 g/dL
same,gamma-GTP,6 h,1.6 IU/L
same,TERMINAL_BW,9 h,194.7 g
same,APTT,9 h,16.6 s
same,Bas,9 h,0%
same,Eos,9 h,0.6%
same,Fbg,9 h,228.4 mg/dL
same,Hb,9 h,12.7 g/dL
same,Ht,9 h,38%
same,Lym,9 h,73.8%
same,MCH,9 h,21.7 pg
same,MCHC,9 h,33.3%
same,MCV,9 h,65 fL
same,Mono,9 h,3%
same,Neu,9 h,22.6%
same,PT,9 h,11.9 s
same,Plat,9 h,117 x10_4/uL
same,RBC,9 h,585.2 x10_4/ul
same,Ret,9 h,9.9%
same,WBC,9 h,101.3 x10_2/uL
same,KIDNEY_L,9 h,0.9 g
same,KIDNEY_R,9 h,0.9 g
same,KIDNEY_TOTAL,9 h,1.8 g
same,LIVER,9 h,7.9 g
same,A/G,9 h,2.2
same,ALP,9 h,605 IU/L
same,ALT,9 h,29.6 IU/L
same,AST,9 h,66.4 IU/L
same,BUN,9 h,11.8 mg/dL
same,CRE,9 h,0.5 mg/dL
same,Ca,9 h,10.6 mg/dL
same,Cl,9 h,106.8 meq/L
same,DBIL,9 h,0.036 mg/dL
same,GLC,9 h,191.8 mg/dL
same,IP,9 h,10.3 mg/dL
same,K,9 h,5 meq/L
same,LDH,9 h,59 IU/L
same,Na,9 h,138 meq/L
same,PL,9 h,133.2 mg/dL
same,RALB,9 h,3.6 g/dL
same,TBIL,9 h,0.4 mg/dL
same,TC,9 h,76.8 mg/dL
same,TG,9 h,40.4 mg/dL
same,TP,9 h,5.3 g/dL
same,gamma-GTP,9 h,2.4 IU/L
same,TERMINAL_BW,24 h,212.9 g
same,APTT,24 h,16 s
same,Bas,24 h,0%
same,Eos,24 h,0.4%
same,Fbg,24 h,226.8 mg/dL
same,Hb,24 h,12.9 g/dL
same,Ht,24 h,38.4%
same,Lym,24 h,79.8%
same,MCH,24 h,21.8 pg
same,MCHC,24 h,33.7%
same,MCV,24 h,65 fL
same,Mono,24 h,4.6%
same,Neu,24 h,15%
same,PT,24 h,11.7 s
same,Plat,24 h,121.2 x10_4/uL
same,RBC,24 h,590.8 x10_4/ul
same,Ret,24 h,9.5%
same,WBC,24 h,106.7 x10_2/uL
same,KIDNEY_L,24 h,0.9 g
same,KIDNEY_R,24 h,0.9 g
same,KIDNEY_TOTAL,24 h,1.8 g
same,LIVER,24 h,10.1 g
same,A/G,24 h,2.2
same,ALP,24 h,864.6 IU/L
same,ALT,24 h,34.8 IU/L
same,AST,24 h,66.8 IU/L
same,BUN,24 h,20.4 mg/dL
same,CRE,24 h,0.5 mg/dL
same,Ca,24 h,10.8 mg/dL
same,Cl,24 h,106 meq/L
same,DBIL,24 h,0.018 mg/dL
same,GLC,24 h,202.2 mg/dL
same,IP,24 h,8.6 mg/dL
same,K,24 h,4.9 meq/L
same,LDH,24 h,93.4 IU/L
same,Na,24 h,140 meq/L
same,PL,24 h,143.2 mg/dL
same,RALB,24 h,3.8 g/dL
same,TBIL,24 h,0.3 mg/dL
same,TC,24 h,77.2 mg/dL
same,TG,24 h,93.6 mg/dL
same,TP,24 h,5.5 g/dL
same,gamma-GTP,24 h,2.2 IU/L
